Reference: ChEMBL document CHEMBL4834440, “2,2,2-trifluoro-1-(1,4,5,6-tetrahydropyridin-3-yl)ethanone derivative as efflux pump inhibitor in Mycobacterium tuberculosis” (Bioorg Med Chem Lett, 2021)
Converted amounts (≈) assume the structure as drawn.

What was measured:
[1] = tested on: Mycobacterium tuberculosis; assay: Antimycobacterial activity against multidrug-resistant Mycobacterium tuberculosis FURG-2 assessed as inhibition of bacterial growth measured by Resazurin microtitre assay; type: functional
[2] = tested on: Mycobacterium tuberculosis H37Rv; assay: Inhibition of Multidrug resistance efflux pump in Mycobacterium tuberculosis H37Rv assessed as relative final fluorescence at 6.26 ug/ml measured by ethidium bromide accumulation assay; details: dose 6.26 µg/ml
[3] = tested on: Mycobacterium tuberculosis; assay: Inhibition of Multidrug resistance efflux pump in Mycobacterium tuberculosis FURG-2 assessed as relative final fluorescence at 3.12 ug/ml measured by ethidium bromide accumulation assay; details: dose 3.12 µg/ml
[4] = tested on: Mycobacterium tuberculosis H37Rv; assay: Inhibition of Multidrug resistance efflux pump in Mycobacterium tuberculosis H37Rv assessed as reduction in rifampicin MIC at 1.56 ug/ml measured by ethidium bromide accumulation assay; details: dose 1.56 µg/ml

Compound `O=C(C1=CN(CCc2ccccc2)C(NCCc2ccccc2)CC1)C(F)(F)F` (centres undefined) has an MIC [1] of 12.5 µg/mL (≈ 31.1 µM), an RFU [2] of -0.2 and an RFU [3] of 1.07. The MIC [4] was 16 µg/mL.
